This is an account of results in ChEMBL document CHEMBL1201862, “PubChem BioAssay data set” (2004).

Activity calls are given as the source filed them.

Test [1] in a line: Cytotoxicity screening for potential Inhibitors of Bacterial Capsule Biogenesis. [Related pubchem assays (depositor defined):AID488970]. Type of test: functional.
The target of test [2] is T1, Ubiquitin-conjugating enzyme E2 N (Homo sapiens, UniProt P61088).
T1 sequence (P61088 whole entry): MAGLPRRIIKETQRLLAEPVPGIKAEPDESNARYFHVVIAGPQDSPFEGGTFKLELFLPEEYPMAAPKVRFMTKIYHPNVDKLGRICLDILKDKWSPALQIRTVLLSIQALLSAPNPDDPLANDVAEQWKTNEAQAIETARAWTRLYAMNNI
Type of test: functional.

Test [3] has as its target T1, Ubiquitin-conjugating enzyme E2 N. Type of test: functional. The source holds these as a separate data set.
Test [4] has as its target Paired box protein Pax-8 (Homo sapiens, UniProt Q06710). Put plainly: PAX8 transcriptional activity inhibition in RMG-I – RMG-I cells, luciferase, cherry-pick, dose response (AID 687027).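 Further: luciferase reporter driven by Pax8 target thyroperoxidase promoter measured by SteadyGlo luminescence.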 Type of test: functional, cell-based.
For test [5], the target named is T2, Bcl-2-related protein A1 (Mus musculus, UniProt Q07440).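 Further: confirmatory dose–response counterscreen on Bfl-1, used to check hits from a UBC13 polyubiquitin inhibitor campaign.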
T2 sequence (Q07440 whole entry): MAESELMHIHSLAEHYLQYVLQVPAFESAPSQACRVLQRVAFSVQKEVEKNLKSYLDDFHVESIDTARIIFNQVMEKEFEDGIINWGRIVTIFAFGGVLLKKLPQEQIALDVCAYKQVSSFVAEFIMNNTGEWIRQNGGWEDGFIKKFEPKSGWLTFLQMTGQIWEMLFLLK
Type of test: functional.

Test [6] deals with Eukaryotic translation initiation factor 4E (Mus musculus, UniProt P63073). Put plainly: blockers of eIF4G binding by eIF4E – biochemical, TR-FRET, dose response (AID 855).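 Further: potency for disrupting eIF4E binding to eIF4GI seen as loss of FRET.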 Format: functional.
Test [7] deals with HeLa. The test is described as follows: viability loss in HeLa cells – cell-based, 24 h, cherry-picked samples, cytotoxicity control, dose response (AID 504726).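 Further: potency for cytotoxicity as loss of luminescence signal.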 Format: functional. The following applies: Homo sapiens.
Test [8] has as its target Nonstructural protein 1 (Influenza A virus, UniProt Q194T2). Type of test: functional, Influenza A virus (A/California/07/2009(H1N1)).
The target in test [9] is T3, ORF 73 (Human herpesvirus 8, UniProt O40947).
T3 sequence (O40947 whole entry): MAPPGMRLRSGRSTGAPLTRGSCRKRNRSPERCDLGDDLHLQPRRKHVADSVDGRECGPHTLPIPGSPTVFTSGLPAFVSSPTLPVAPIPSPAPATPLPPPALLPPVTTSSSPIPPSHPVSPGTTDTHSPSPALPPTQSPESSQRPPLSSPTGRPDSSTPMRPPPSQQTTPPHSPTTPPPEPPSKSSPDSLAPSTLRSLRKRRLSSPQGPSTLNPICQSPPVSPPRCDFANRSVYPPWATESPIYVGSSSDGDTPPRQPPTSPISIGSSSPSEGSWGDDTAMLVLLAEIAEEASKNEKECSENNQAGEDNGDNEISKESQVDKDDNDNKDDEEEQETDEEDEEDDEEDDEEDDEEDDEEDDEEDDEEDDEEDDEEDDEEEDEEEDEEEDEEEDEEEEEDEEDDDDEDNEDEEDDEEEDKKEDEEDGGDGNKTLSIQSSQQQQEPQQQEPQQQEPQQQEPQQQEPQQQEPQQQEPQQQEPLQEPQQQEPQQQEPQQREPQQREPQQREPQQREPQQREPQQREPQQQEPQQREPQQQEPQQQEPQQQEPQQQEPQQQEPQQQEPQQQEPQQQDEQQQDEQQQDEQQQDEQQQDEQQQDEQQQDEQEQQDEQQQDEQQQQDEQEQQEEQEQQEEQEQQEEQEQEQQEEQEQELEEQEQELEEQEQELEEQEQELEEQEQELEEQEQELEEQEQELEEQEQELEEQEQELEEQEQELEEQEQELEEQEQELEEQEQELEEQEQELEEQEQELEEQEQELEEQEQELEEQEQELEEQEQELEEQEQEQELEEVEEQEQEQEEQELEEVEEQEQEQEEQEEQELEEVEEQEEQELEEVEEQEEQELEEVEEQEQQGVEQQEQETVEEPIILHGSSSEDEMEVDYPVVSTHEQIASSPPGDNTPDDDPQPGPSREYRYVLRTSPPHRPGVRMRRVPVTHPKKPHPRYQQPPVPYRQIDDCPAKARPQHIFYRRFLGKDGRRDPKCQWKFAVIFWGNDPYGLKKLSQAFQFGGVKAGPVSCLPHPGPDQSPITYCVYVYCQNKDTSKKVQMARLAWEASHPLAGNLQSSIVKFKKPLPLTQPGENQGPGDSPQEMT
Put plainly: KSHV LANA DNA-binding disruption – biochemical, fluorescence polarization, cherry-picked samples, dose response (AID 504725).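 Further: fluorescence polarization of a labeled DNA duplex reporting LANA DNA binding; potency is for inhibitors that block LANA binding to the DNA.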 Details: species or system Human gammaherpesvirus 8. For orientation: Fluorescence polarisation rises when a labelled molecule tumbles more slowly, as on binding a larger partner.

Test [10] concerns the target Cystic fibrosis transmembrane conductance regulator/Golgi-associated PDZ and coiled-coil motif-containing protein (Homo sapiens, UniProt P13569+Q9HD26). The test is described as follows: potency against CAL PDZ-peptide interaction – biochemical, fluorescence polarization, Cerulean-tagged CAL PDZ, cherry-picks, dose response (AID 504773).
The target in test [11] is T4, Protein skinhead-1 (Caenorhabditis elegans, UniProt P34707).
T4 sequence (P34707 whole entry): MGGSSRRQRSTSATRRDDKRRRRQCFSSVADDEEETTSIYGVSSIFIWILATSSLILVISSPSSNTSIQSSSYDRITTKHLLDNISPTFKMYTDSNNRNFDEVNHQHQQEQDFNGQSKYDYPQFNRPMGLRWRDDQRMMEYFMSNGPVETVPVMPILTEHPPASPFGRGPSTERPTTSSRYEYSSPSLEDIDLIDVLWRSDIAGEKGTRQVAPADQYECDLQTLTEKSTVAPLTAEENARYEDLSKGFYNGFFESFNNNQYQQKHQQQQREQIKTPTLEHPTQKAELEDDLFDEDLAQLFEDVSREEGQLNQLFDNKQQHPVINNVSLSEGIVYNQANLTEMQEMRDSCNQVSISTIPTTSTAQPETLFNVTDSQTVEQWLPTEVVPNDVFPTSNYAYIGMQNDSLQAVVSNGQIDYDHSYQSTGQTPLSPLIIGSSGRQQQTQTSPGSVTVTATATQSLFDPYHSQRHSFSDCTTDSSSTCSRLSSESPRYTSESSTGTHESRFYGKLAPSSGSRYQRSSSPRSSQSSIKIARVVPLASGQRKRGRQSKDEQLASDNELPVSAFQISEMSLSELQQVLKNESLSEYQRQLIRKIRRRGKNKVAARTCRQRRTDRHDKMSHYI
Format: functional.

A short description of test [12]: THP-1 cell cytotoxicity, dose response, cytotoxicity control for non-replicating M. tuberculosis project (AID 489025). Format: functional.
Test [13] relates to BJ. Put plainly: BJ-TERT fibroblast viability loss – cell-based, RAS-independent, luminescence, dose response (AID 1933). Format: functional. The following applies: Homo sapiens.
Test [14] is described as follows: DRD fibroblast viability loss – cell-based, non-viral oncogenic, luminescence, dose response (AID 1934). The settings on record: Homo sapiens. Type of test: functional.
The target in test [15] is Neurotensin receptor type 1 (Homo sapiens, UniProt P30989). Format: functional.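 Further: Image-based confirmatory dose-response assay measuring agonist activity at NTR1; NTR1-expressing U2OS osteosarcoma cells imaged for beta-arrestin GFP spot formation; agonist potency where compounds increase beta-arrestin recruitment.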
Test [16] deals with BJ. Put plainly: cells. Type of test: functional, cell-based. The settings on record: Homo sapiens.
Test [17] has as its system BJ. The test is described as follows: BJ-TERT-LT-ST fibroblast viability loss – cell-based, RAS-independent, luminescence, dose response (AID 1935).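 Further: BJ fibroblasts immortalized with TERT plus LT and ST oncogenes.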 Format: functional. The settings on record: Homo sapiens.
Test [18] is described as follows: Luminescence Cell-Based Dose Retest to Confirm Inhibitors of Cancer Stem Cells. [Related pubchem assays (depositor defined):AID2717, AID2721]. Format: functional, Homo sapiens. The following applies: Homo sapiens.
A short description of test [19]: cells. Format: functional.
The nature of test [20]: Vero E6 cell cytotoxicity, dose response, cytotoxicity control for non-replicating M. tuberculosis project, secondary assay (AID 492998). Format: functional, VeroE6. The following applies: Vero C1008.
A short description of test [21]: Luminescent dose response cell-based high throughput screening assay for inhibitors of the Janus kinase 2 mutant JAK2V617F. [Related pubchem assays: 1446 (Primary screen.), 1521 (Confirmation assay.), 1486 (Counter screen.)]. Format: functional. In general terms: The purpose of a counterscreen is to sort out artefacts and off-target activity.
In test [22] the target is Cytochrome P450 2C9 (Homo sapiens, UniProt P11712).
Test [23] has as its target T5, Microphthalmia-associated transcription factor (Homo sapiens, UniProt O75030).
T5 sequence (O75030 whole entry): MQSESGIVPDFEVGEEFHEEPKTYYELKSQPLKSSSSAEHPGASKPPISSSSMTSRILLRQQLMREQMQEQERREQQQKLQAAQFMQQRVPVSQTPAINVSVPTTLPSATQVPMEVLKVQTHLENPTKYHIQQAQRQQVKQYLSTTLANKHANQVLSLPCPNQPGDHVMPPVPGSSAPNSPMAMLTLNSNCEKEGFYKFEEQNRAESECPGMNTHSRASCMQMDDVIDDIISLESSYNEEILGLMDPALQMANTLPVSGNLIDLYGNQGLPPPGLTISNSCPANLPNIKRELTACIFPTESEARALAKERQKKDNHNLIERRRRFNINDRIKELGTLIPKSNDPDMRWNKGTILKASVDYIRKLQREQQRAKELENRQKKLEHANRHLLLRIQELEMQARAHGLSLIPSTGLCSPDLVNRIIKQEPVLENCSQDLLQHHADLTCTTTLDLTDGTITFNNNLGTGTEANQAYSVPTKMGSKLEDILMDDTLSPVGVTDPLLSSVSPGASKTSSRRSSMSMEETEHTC
Put plainly: reducers of TRPM1 reporter luminescence, concentration series – cell-based, SK-MEL-5, cherry-picked, set 3, MITF inhibitor project, dose response (AID 493073).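 Further: SK-MEL-5 melanoma cells with luciferase driven by the MITF target TRPM1 promoter.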 Type of test: functional.

Sequence of Neurotensin receptor type 1 (P30989 whole entry): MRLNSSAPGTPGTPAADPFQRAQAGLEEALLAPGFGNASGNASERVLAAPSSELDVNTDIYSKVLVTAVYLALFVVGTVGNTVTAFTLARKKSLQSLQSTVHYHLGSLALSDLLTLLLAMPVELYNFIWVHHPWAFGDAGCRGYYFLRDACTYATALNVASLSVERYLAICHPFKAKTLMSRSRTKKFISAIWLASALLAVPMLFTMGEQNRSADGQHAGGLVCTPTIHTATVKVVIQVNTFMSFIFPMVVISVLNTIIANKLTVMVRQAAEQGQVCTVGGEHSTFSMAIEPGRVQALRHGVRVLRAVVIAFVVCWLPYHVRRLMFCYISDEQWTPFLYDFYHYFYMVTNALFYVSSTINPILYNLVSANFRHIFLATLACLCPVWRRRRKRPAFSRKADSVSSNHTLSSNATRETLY
Sequence of Cytochrome P450 2C9 (P11712 whole entry): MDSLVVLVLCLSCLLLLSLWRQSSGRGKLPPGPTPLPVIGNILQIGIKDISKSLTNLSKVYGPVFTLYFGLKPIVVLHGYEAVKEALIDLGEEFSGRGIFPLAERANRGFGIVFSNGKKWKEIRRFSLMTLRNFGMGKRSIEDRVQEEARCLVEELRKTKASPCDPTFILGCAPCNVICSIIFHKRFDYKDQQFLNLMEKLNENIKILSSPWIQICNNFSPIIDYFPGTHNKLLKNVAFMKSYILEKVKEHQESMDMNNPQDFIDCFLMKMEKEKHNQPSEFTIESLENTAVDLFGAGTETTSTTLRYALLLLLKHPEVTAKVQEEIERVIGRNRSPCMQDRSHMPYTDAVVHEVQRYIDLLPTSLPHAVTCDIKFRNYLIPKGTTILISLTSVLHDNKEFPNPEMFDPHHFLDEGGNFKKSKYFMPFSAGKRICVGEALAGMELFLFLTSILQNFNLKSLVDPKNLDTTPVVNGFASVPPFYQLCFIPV
Sequence of Paired box protein Pax-8 (Q06710 whole entry): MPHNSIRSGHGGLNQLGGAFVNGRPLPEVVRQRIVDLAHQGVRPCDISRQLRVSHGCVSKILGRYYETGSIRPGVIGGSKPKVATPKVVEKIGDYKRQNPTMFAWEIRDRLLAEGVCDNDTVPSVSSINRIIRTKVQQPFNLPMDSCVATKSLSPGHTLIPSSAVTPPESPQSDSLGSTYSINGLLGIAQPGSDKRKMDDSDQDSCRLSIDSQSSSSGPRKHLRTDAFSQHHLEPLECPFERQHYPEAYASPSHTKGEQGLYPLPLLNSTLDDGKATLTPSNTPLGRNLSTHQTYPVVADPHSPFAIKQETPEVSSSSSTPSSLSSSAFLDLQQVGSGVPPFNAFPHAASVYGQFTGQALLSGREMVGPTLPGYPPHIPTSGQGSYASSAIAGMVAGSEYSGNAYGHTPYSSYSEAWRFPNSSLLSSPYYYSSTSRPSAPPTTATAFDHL
Sequence of Cystic fibrosis transmembrane conductance regulator/Golgi-associated PDZ and coiled-coil motif-containing protein (P13569 whole entry, other chains not shown): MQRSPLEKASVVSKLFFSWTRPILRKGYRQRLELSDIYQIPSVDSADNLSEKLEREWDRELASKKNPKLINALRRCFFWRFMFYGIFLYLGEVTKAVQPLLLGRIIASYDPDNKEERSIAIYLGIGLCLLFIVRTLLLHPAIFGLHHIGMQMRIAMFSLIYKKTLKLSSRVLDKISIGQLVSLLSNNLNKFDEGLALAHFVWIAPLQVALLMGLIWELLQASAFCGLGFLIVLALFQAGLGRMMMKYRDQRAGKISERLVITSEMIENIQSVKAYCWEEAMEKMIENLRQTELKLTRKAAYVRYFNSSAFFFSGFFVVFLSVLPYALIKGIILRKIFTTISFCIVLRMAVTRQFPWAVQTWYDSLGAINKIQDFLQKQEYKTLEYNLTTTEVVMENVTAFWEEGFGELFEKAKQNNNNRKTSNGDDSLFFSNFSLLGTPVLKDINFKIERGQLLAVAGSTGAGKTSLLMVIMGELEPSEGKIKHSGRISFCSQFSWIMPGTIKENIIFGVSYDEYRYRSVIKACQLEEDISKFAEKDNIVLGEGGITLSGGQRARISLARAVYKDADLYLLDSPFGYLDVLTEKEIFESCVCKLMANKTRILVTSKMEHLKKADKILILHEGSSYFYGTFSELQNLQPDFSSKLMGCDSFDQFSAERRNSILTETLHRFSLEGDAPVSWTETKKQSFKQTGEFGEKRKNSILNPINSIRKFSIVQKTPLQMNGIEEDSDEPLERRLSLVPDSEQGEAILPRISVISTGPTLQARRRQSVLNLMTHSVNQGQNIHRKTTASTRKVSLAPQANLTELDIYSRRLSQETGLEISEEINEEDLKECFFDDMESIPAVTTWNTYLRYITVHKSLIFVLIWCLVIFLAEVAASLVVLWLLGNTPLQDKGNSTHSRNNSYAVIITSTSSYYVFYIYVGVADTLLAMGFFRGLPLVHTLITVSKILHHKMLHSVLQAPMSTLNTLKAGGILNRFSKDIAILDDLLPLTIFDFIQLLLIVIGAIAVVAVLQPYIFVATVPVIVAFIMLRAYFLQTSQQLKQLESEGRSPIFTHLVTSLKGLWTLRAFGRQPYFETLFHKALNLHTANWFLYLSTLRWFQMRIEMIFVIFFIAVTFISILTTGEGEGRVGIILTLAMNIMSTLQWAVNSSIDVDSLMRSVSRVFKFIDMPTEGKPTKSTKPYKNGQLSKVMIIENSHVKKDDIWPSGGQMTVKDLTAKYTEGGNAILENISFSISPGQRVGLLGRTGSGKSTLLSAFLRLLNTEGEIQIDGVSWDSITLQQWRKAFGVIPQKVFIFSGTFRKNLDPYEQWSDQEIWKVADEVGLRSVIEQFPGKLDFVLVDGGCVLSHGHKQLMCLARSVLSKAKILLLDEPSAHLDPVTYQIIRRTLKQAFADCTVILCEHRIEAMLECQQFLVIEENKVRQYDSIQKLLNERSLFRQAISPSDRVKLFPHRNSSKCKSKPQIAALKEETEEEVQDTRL
Sequence of Nonstructural protein 1 (Q194T2 whole entry): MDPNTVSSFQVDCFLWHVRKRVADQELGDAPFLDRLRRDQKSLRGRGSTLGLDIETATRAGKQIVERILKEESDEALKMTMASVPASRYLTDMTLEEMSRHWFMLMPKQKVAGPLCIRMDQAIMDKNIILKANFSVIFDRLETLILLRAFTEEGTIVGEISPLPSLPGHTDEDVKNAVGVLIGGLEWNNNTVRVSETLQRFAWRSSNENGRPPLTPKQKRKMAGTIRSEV
Sequence of Eukaryotic translation initiation factor 4E (P63073 whole entry): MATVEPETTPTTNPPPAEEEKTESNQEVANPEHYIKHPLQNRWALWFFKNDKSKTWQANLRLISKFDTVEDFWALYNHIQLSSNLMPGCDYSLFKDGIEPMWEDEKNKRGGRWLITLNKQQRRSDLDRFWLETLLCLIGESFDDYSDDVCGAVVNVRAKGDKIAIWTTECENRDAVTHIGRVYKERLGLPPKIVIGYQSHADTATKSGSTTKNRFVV

Take `O=C(Nc1cccc(C2=NCCN2)c1)Nc1cccc(C2=NCCN2)c1` [IMIDOCARB DIPROPIONATE]: the CC50 – broadly, the concentration that lowers cell viability or growth by half – in test [1] was > 100 µM (active). Besides, the IC50 (usually the concentration needed to halve the response being measured) in [2] is 10.6 µM (active); in test [3], 13.2 µM (active); in [5], > 20 µM (inactive). In addition, in [4], the AC50 (as a rule, the concentration giving half of the maximal activity seen) was 0.879 µM (active).

With `COc1ccc(OC)c(-c2c3cc(O)c(=O)cc-3oc3cc(O)c(O)cc23)c1`, the IC50 in test [6] is 15.7 µM (active); in test [8] it was 20.3 µM (active). Also, the figures for the AC50 in [7], in test [9] and in test [10] were 135 µM (active), 1.56 µM (active) and 13.3 µM (active), respectively.

As for `COc1ccc2nc(NC(=O)c3ccc(Br)s3)sc2c1`, the CC50 in [1] was > 100 µM (active). The IC50 in test [11] was > 100 µM (inactive).

Turning to `O=C1NC(=O)N(CCc2ccc(F)cc2)C(=O)/C1=C/C=C/c1ccccc1`, the CC50 was 5.09 µM (active) in [12] and 16.8 µM (active) in [20]. In addition, the half-maximal effective concentration (EC50) (commonly the concentration needed to bring the measured effect to its halfway point) was 5.32 µM (inconclusive) in test [13]; 5.39 µM (inconclusive) in [14]; 39.3 µM (inactive) in test [15]; > 150 µM (not active) in test [16]; 11.6 µM (inconclusive) in test [17]. Moreover, the half-maximal activity concentration (AC50) in [18] was 1.05 µM (active). The half-inhibitory concentration (IC50) in [19] is 48.4 µM (active).

`C/C(=C\c1ccc(N(C)C)cc1)[N+](=O)[O-]`: the IC50 in test [21] is 0.653 µM (active). In addition, the half-maximal activity concentration (AC50) in test [22] is 31.6 µM (inconclusive); in [23], 13.1 µM (active). In addition, the concentration for a half-maximal effect (EC50) in test [15] was 4.26 µM (active).
